Laboratory results reported in patent publication US20090234014A1, “Naphthalene-Disulfonamides Useful for the Treatment of Inflammation” (priority 2005, published 2009).

Target: T1, mPGES-1 (Homo sapiens, UniProt O14684)
T1 construct: made in house; host or cells: E. coli (membrane fraction)
T1 sequence (O14684 1-152): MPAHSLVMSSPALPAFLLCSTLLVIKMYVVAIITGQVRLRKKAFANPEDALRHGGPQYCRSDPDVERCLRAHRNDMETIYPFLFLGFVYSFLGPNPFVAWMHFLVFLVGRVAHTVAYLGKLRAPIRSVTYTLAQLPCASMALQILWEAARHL
Experiment: mPGES-1 assay: conversion of PGH2 to PGE2, PGE2 measured by HPLC
Format: biochemical
Details: mPGES-1 expressed in E. coli, membrane fraction; 25 min preincubation with inhibitor, 60 s with PGH2, room temperature; read-out: IC50 values
Experimental: In the assay mPGES-1 catalyses the reaction where the substrate PGH2 is converted to PGE2. mPGES-1 is expressed in E. coli and the membrane fraction is dissolved in 20 mM NaPi-buffer pH 8.0 and stored at −80° C. In the assay mPGES-1 is dissolved in 0.1M KPi-buffer pH 7.35 with 2.5 mM glutathione. The stop solution consists of H2O/MeCN (7/3), containing FeCl2 (25 mM) and HCl (0.15 M). The assay is performed at room temperature in 96-well plates. Analysis of the amount of PGE2 is performed with reversed phase HPLC (Waters 2795 equipped with a 3.9×150 mm C18 column). The mobile phase consists of H2O/MeCN (7/3), containing TFA (0.056%), and absorbance is measured at 195 nm with a Waters 2487 UV-detector.
The following is added chronologically to each well: • 1. 100 μL mPGES-1 in KPi-buffer with glutathione. Total protein concentration: 0.02 mg/mL. • 2. 1 μL inhibitor in DMSO. Incubation of the plate at room temperature for 25 minutes. • 3. 4 μL of a 0.25 mM PGH2 solution. Incubation of the plate at room temperature for 60 seconds. • 4. 100 μL stop solution. • 180 μL per sample is analyzed with HPLC.

IC50 | Compound
1.7 µM | Cc1c(Cl)cccc1NS(=O)(=O)c1cc(S(=O)(=O)Nc2cccc(Cl)c2C)c2ccccc2c1 [Example 15, N^1,N^3-di(3-chloro-2-methylphenyl)naphthalene-1,3-disulfonamide]
4.1 µM | O=S(=O)(Nc1ccccc1C(F)(F)F)c1cc(S(=O)(=O)Nc2ccccc2C(F)(F)F)c2cc(O)ccc2c1 [Example 9, N^1,N^3-di(2-trifluoromethylphenyl)-7-hydroxynaphthalene-1,3-disulfonamide]
1.2 µM | Cc1ccc(Cl)cc1NS(=O)(=O)c1cc(S(=O)(=O)Nc2cc(Cl)ccc2C)c2cc(O)ccc2c1 [Example 7, N^1,N^3-di(5-chloro-2-methylphenyl)-7-hydroxynaphthalene-1,3-disulfonamide]
1.1 µM | Cc1cc(C)c(NS(=O)(=O)c2cc(S(=O)(=O)Nc3c(C)cc(C)cc3C)c3cc(O)ccc3c2)c(C)c1 [Example 3, N^1,N^3-di(mesityl)-7-hydroxynaphthalene-1,3-disulfonamide]
3.7 µM | Cc1ccc(NS(=O)(=O)c2cc(S(=O)(=O)Nc3ccc(C)cc3)c3ccccc3c2)cc1 [Example 20, N^1,N^3-di(p-tolyl)naphthalene-1,3-disulfonamide]
1.3 µM | Cc1ccc(Cl)cc1NS(=O)(=O)c1cc(S(=O)(=O)Nc2cc(Cl)ccc2C)c2ccccc2c1 [Example 16, N^1,N^3-di(5-chloro-2-methylphenyl)naphthalene-1,3-disulfonamide]
1.7 µM | Cc1cccc(C)c1NS(=O)(=O)c1cc(S(=O)(=O)Nc2c(C)cccc2C)c2ccccc2c1 [Example 11, N^1,N^3-di(2,6-xylyl)naphthalene-1,3-disulfonamide]

Same assay, conditions: mPGES-1 expressed in E. coli, membrane fraction; stated as 10 μM or below; read-out: concentration exhibiting 50% inhibition of mPGES-1

IC50 | Compound
≤ 10 µM | O=S(=O)(Nc1ccccc1)c1cc(S(=O)(=O)Nc2ccccc2)c2cc(O)ccc2c1 [N^1,N^3-Diphenyl-7-hydroxynaphthalene-1,3-disulfonamide]
